# Assay results: US6369069B1 (Aventis Pharma Deutschland GmbH, priority 1998, dated 2002)
# System: Na^+-dependent Cl^−/HCO3^− exchanger (NCBE)
# Test: Inhibition of the Na+-dependent Cl−/HCO3− exchanger (NCBE) in human endothelial cells (pHi recovery, BCECF fluorescence, FLIPR)
# Format: cell-based
# Details: 10 μM
# Procedure, shortened: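 ECV-304 cells loaded with 5 μM BCECF-AM in NH4Cl-containing saline, then placed in Na+/HCO3−-free buffer to acidify. pHi recovery started with Na+/HCO3− buffer (50 μM HOE 642) plus compound at various concentrations. Fluorescence kinetics over 2 min at 35 °C, normalised to 100% and 0% (HCO3−-free) controls.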
row,SMILES,Residual activity % of the NCBE at 10 μM [%]
1,CC(C)(C)CC(=O)N(Cc1ccc(F)cc1)Cc1ccc(-c2ccccc2S(=O)(=O)NC#N)cc1 [Example 163],93.4
2,COc1cccc(CN(Cc2ccc(-c3ccccc3S(=O)(=O)NC#N)cc2)C(=O)c2cccs2)c1 [Example 86],57.0
3,N#CNS(=O)(=O)c1ccccc1-c1ccc(CN(Cc2ccc(Cl)c(Cl)c2)C(=O)CCCCc2ccccc2)cc1 [Example 262],45.3
4,N#CNS(=O)(=O)c1ccccc1-c1ccc(CN(Cc2cccc(Cl)c2)C(=O)Cc2ccc(O)cc2)cc1 [Example 285],58.8
5,CC(C)NC(=O)N(Cc1ccccc1)Cc1ccc(-c2ccccc2S(=O)(=O)NC#N)cc1 [Example 298],74.7
6,N#CNS(=O)(=O)c1ccccc1-c1ccc(CN(CC2CC2)C(=O)Cc2cccs2)cc1 [Example 144],60.3
7,C[C@@H](c1ccccc1)N(Cc1ccc(-c2ccccc2S(=O)(=O)NC#N)cc1)C(=O)C(c1ccccc1)c1ccccc1 [Example 113],94.6
8,N#CNS(=O)(=O)c1ccccc1-c1ccc(CN(Cc2ccccc2Cl)C(=O)c2ccccc2Cl)cc1 [Example 101],62.6
9,CC(=O)N(CCc1cccs1)Cc1ccc(-c2ccccc2S(=O)(=O)NC#N)cc1 [Example 179],78.3
10,COc1cccc(CN(Cc2ccc(-c3ccccc3S(=O)(=O)NC#N)cc2)C(=O)NC(C)C)c1 [Example 302],80.4
11,CCN(Cc1ccc(-c2ccccc2S(=O)(=O)NC#N)cc1)C(=O)CCCCc1cccs1 [Example 223],53.8
12,N#CNS(=O)(=O)c1ccccc1-c1ccc(CN(C(=O)Cc2cccs2)C(C(=O)O)c2ccccc2)cc1 (stereo not drawn) [Example 282],89.0
13,C=CCOC(=O)N(CCO)Cc1ccc(-c2ccccc2S(=O)(=O)NC#N)cc1 [Example 44],82.6
14,N#CNS(=O)(=O)c1ccccc1-c1ccc(CN(Cc2ccc(Cl)c(Cl)c2)C(=O)C(NC(=O)OCc2ccccc2)c2ccccc2)cc1 (stereo not drawn) [Example 260],69.8
15,Cc1ccc(C(=O)N(CCO)Cc2ccc(-c3ccccc3S(=O)(=O)NC#N)cc2)cc1 [Example 68],94.4
16,COCCC(=O)N(Cc1ccc(-c2ccccc2S(=O)(=O)NC#N)cc1)Cc1cccc(-c2ccccc2)c1 [Example 327],17.4
17,N#CNS(=O)(=O)c1ccccc1-c1ccc(CN(Cc2cccc(Cl)c2)C(=O)Nc2c(F)cccc2F)cc1 [Example 305],84.9
18,N#CNS(=O)(=O)c1ccccc1-c1ccc(CN(C(=O)C(=O)c2cccs2)C2CC2)cc1 [Example 197],79.9

row,SMILES,Residual activity % of the NCBE at 10 μM [%]
1,COCCN(Cc1ccc(-c2ccccc2S(=O)(=O)NC#N)cc1)C(=O)C(=O)c1cccs1 [Example 195],58.3
2,CN(Cc1ccc(-c2ccccc2S(=O)(=O)NC#N)cc1)C(=O)Cc1c[nH]c2ccccc12 [Example 206],23.8
3,N#CNS(=O)(=O)c1ccccc1-c1ccc(CN(C(=O)CCC2CCCCC2)C2CCCCC2)cc1 [Example 12],92.9
4,N#CNS(=O)(=O)c1ccccc1-c1ccc(CN(Cc2ccc3c(c2)OCO3)C(=O)c2cc3ccccc3s2)cc1 [Example 77],81.8
5,N#CNS(=O)(=O)c1ccccc1-c1ccc(CN(Cc2ccc(C(F)(F)F)cc2)C(=O)c2cccs2)cc1 [Example 89],67.6
6,N#CNS(=O)(=O)c1ccccc1-c1ccc(CN(C(=O)CCCc2cccs2)C2CC2)cc1 [Example 189],72.5
7,CC(=O)N(Cc1ccc(Cl)cc1)Cc1ccc(-c2ccccc2S(=O)(=O)NC#N)cc1 [Example 62],94.5
8,N#CNS(=O)(=O)c1ccccc1-c1ccc(CN(Cc2ccccn2)C(=O)CCCCc2cccs2)cc1 [Example 220],73.2
9,CC(C)=CCCC(C)=CCN(Cc1ccc(-c2ccccc2S(=O)(=O)NC#N)cc1)C(=O)CC1CCCC1 [Example 363],48.3
10,N#CNS(=O)(=O)c1ccccc1-c1ccc(CN(Cc2ccc3ccccc3c2)C(=O)Cc2cccs2)cc1 [Example 310],47.7
11,COc1ccccc1C(=O)N(Cc1ccc(-c2ccccc2S(=O)(=O)NC#N)cc1)Cc1ccccc1F [Example 336],58.1
12,COc1ccc(CN(Cc2ccc(-c3ccccc3S(=O)(=O)NC#N)cc2)C(=O)c2ccccc2F)cc1 [Example 39],51.3
13,CCN(Cc1ccc(-c2ccccc2S(=O)(=O)NC#N)cc1)C(=O)Cc1ccsc1 [Example 231],57.8
14,CCN(Cc1ccc(-c2ccccc2S(=O)(=O)NC#N)cc1)C(=O)Cc1cccs1 [Example 240],58.0
15,COc1ccc(CN(Cc2ccc(-c3ccccc3S(=O)(=O)NC#N)cc2)C(C)=O)cc1 [Example 69],95.4
16,N#CNS(=O)(=O)c1ccccc1-c1ccc(CN(C(=O)CC2CCCCC2)C2CCc3ccccc32)cc1 (stereo not drawn) [Example 354],37.2
17,N#CNS(=O)(=O)c1ccccc1-c1ccc(CN(Cc2cccs2)C(=O)NCc2ccccc2)cc1 [Example 295],8.0
18,N#CNS(=O)(=O)c1ccccc1-c1ccc(CN(Cc2ccc3ccccc3c2)C(=O)CC2CCCC2)cc1 [Example 360],36.9

# Same assay, conditions: 10 μM compound; human endothelial cells (ECV-304); related to 100% and 0% pHi recovery controls
row,SMILES,Residual activity of the NCBE at 10 μM [%]
1,"COCCOc1cc(-c2ccccc2S(=O)(=O)NC#N)ccc1CN(Cc1ccccc1)C(=O)Cc1cccs1 [Example 560, 4′-{[Benzyl-2-(thiophen-2-yl)acetylamino]methyl}-3′-(2-methoxy)ethoxy-biphenyl-2-sulfonylcyanamide]",8.0

# Same assay, conditions: compound at 10 μM; R(3) to R(7) hydrogen series
row,SMILES,Residual activity % of the NCBE at 10 μM [%]
1,N#CNS(=O)(=O)c1ccccc1-c1ccc(CN(CC2CC(C(=O)N3CCCC3)=NO2)C(=O)Cc2cccs2)cc1 (stereo not drawn) [Example 396],53.2
2,CC(C(=O)N(Cc1ccc(-c2ccccc2S(=O)(=O)NC#N)cc1)Cc1cccc2ccccc12)c1cccs1 (stereo not drawn) [Example 390],89.8
3,CC(C(=O)N(Cc1ccc(-c2ccccc2S(=O)(=O)NC#N)cc1)CC1CC(C(=O)N2CCCC2)=NO1)c1cccs1 (stereo not drawn) [Example 397],44.0

# Same assay, conditions: compound at 10 μM; sub-table with R7 substituent
row,SMILES,Residual activity % of the NCBE at 10 μM [%]
1,Cc1ccc(-c2ccc(CN(Cc3ccc4ccccc4c3)C(=O)CC3CCCCC3)cc2)c(S(=O)(=O)NC#N)c1 [Example 547],76.5
2,Cc1ccc(-c2ccc(CN(Cc3cccc(Cl)c3Cl)C(=O)C(C)c3cccs3)cc2)c(S(=O)(=O)NC#N)c1 (stereo not drawn) [Example 528],72.0
